A short description of data set [1]: Stability of nBTPT on urea blended with DAP, bagged storage at 20° C., HPLC analysis of nBTPT content. It counts as physicochemical. Particulars: 2500 ppm added; 900 ppm nBTPT as Agrotain Ultra on urea blended with DAP 1:1; 14 days bagged storage at 20° C. The protocol:
(§1) For lab scale experiments, nBTPT was applied onto urea by adding 1.2 kg of urea-based compound to a lab scale drum. In a next step, the nBTPT material was slowly added. A residence time of 10 minutes was applied and the rotating speed of the drum was consequently the same in each experiment. In case a moisture repellent coating was added, a nebulizer was used and depending on the order of addition, the moisture repellent coating was added before or after addition of the nBTPT material. Before use, the moisture repellent coating was preheated to 80° C. Larger scale experiments with amounts up to 40 kg of fertilizer material were performed in a concrete mixer.
(§2) In a next step, one or more reactive alkaline or alkaline-forming inorganic or organic compounds that is able to interact with the one or more components selected from the group of nitrates, phosphates, sulphates and chlorides was added;
(§3) In a next step, a particulate material, comprising one or more components selected from the group of nitrates, phosphates, sulphates and chlorides was added;
(§4) All the components were mixed thoroughly.
Optionally, a coating to one or more of the particulate components that is able to increase at least the anti-caking and/or water repellent properties of said urea-based blend composition was added. Importantly, all the steps can be interchanged or the steps can be performed simultaneously.
(§5) The samples were stored under several conditions, dependent on the type of samples: • 20° C. closed plastic container with head space (Climate chamber, 80% relative humidity) • Bagged at room temperature (20-25° C.) or in nissenhut (an unconditioned bulk hall) • Open to air in nissenhut • Cylinder test in nissenhut • Open pile in nissenhut
(§6) HPLC analysis of nBTPT is done as described in the procedure CEN 15688-2007.
(§7) In practice, the urea-based compound treated with nBTPT was picked and separated manually from the particulate material, comprising one or more components selected from the group of nitrates, phosphates, sulphates and chlorides, and then subsequently dissolved in water for HPLC analysis.
Coating: Moisture repellent (MR) coating was made according to EP 0768993 A1 (Norsk Hydro ASA) by mixing about 28 weight % of wax, about 68 weight % of oil and about 4 weight % of a resin, applied in an amount of about 0.1-0.5% weight % to the fertilizer. It will be referred herein as NH coating.

A short description of data set [2]: Stability of nBTPT in/on urea blends, storage open to air in jars in nissenhut, HPLC analysis of nBTPT content. Format: physicochemical. Particulars: for effect of addition on the stability of nBTPT: 2650 ppm added, 14 days open to air in jars at nissenhut; for stability of nBTPT (degradation): 35 days open to air in jars in nissenhut. How it is done: nBTPT was mixed in urea in the following way: nBTPT was added to urea melt and subsequently this mixture was granulated in a fluidized bed granulator.
as §1, §2, §3, §4, §5
(§8) Typically, a day/night cycle is generated in the nissenhut, with temperature fluctuations between 0 to 42° C. and fluctuations of relative humidity between 20 and 90%, which can be compared with real life storage in silos.
as §6, §7

Data set [3] can be described thus: Stability of nBTPT in/on urea:AS blend, bagged versus open to air storage in nissenhut. Format: physicochemical. Particulars: 500 ppm nBTPT in/on urea blended with granular AS 1:1; 35 days in nissenhut. How it is done: FIG. 8. Stability of different nBTPT formulations (500 ppm) in and on urea in a blend with granular AS: bagged versus open to air storage-% recovery of nBTPT after 35 days of storage in nissenhut (day/night cycle 16-42° C./27-77% relative humidity). • A=[500 ppm nBTPT powder in urea]+AS 1:1 • B=[500 ppm nBTPT powder on urea]+AS 1:1 • C=[500 ppm nBTPT as Agrotain® Ultra in urea]+AS 1:1 • D=[500 ppm nBTPT as Agrotain® Ultra on urea]+AS 1:1
as §5, §8, §6, §7

Data set [4] is classed as physicochemical. The source says:
With regard to the activity of the reactive alkaline or alkaline-forming inorganic or organic compounds, without being bound by theory, it is hypothesised that the reactive alkaline or alkaline-forming inorganic or organic compound neutralises the released phosphoric acid which is formed during decomposition of the urease inhibitor of the type phosphoric triamide in view of the fact that the decomposition of the urease inhibitor of the type phosphoric triamide is acid-catalysed. As such, the decomposition of the urease inhibitor of the type phosphoric triamide is slowed down. Furthermore, the stabilizer has the ability to immobilize the nitrates, phosphates, sulphates and chlorides and/or to convert the nitrates, phosphates, sulphates and chlorides into a form which is less reactive with the urease inhibitor of the type phosphoric triamide. For example, calcium oxide may react with ammonium sulphate in the presence of water, which is always present in small amounts in urea, to form calcium sulphate, which is nearly insoluble in an aqueous environment, such as a soil.

Consider 8 compounds from patent US11072567B2, “Urea-based blend composition and method for the manufacture thereof” (YARA INTERNATIONAL ASA, priority 2015, dated 2021).

Take `O=C([O-])[O-].[Ca+2]` [CaCO3, calcium carbonate]: the “effect of addition on the stability of nBTPT” value (“effect of addition” for short) in data set [1] is on record as “beneficial effect”.

With `[O]=[Ca]` [CaO, calcium oxide], the “effect of addition” value in data set [2] (500 ppm nBTPT powder in or on urea blended with DAP and KCl triple 19) is listed as “beneficial effect”; in data set [2] (500 ppm nBTPT powder in or on urea blended with granular AS 1:1), “beneficial effect”; in data set [1] it was “beneficial effect”.

For the compound `[O]=[Mg]` [MgO, magnesium oxide], the “effect of addition” value in data set [1] is reported as “beneficial effect”.

With `[O]=[Zn]` [ZnO, zinc oxide], the “effect of addition” value in data set [1] is given as “beneficial effect”.

Consider `OCCNCCO` [diethanolamine], for which the “effect of addition” value in data set [1] was “beneficial effect”.

For the compound `CCCCNP(N)(N)=S` [nBTPT, N-(n-butyl) thiophosphoric triamide], the “stability of nBTPT (degradation)” value is reported as “degrades very fast” in data set [2] (liquid nBTPT formulations in and on urea (500 ppm) blended with granular AS 1:1, 16-42° C./27-77% relative humidity); “degrades very dramatically” in data set [2] (nBTPT formulations in and on urea (500 ppm) blended with DAP and KCl, triple 19 ratio); “degrades very fast” in data set [2] (solid nBTPT in and on urea (500 ppm) blended with DAP 1:1); “degrades very fast” in data set [2] (solid nBTPT in and on urea (500 ppm) blended with KCl 1:1). Moreover, the “effect of bagged storage versus open to air storage on stability of nBTPT” value in data set [3] is listed as “beneficial effect of bagged storage”.

As for `CCN(CC)CC` [triethylamine], the “effect of addition” value in data set [1] was “beneficial effect”.

talc: the “stabilizing effect on nBTPT” value in data set [4] is “no stabilizing effect”.
